Key:
[1] = Solubility test of tin(II) alkoxides in organic solvents; type: physicochemical; details: liquid tin(II) alkoxides; temperature range of 25-38° C.
[2] = literature solids; cited from earlier work
[3] = Storage of liquid tin(II) alkoxides under nitrogen or argon; details: stored under a nitrogen or argon atmosphere

tin(II) n-hexoxide
Solubility in common organic solvents [1]: soluble in common organic solvents

CCCC[O-].CCCC[O-].[Sn+2] [Tin(II) n-butoxide, tin(II) n-butoxide]
Stability (moisture, oxygen, colour change) [2]: extremely moisture and oxygen sensitive
Storage stability (reactivity) [3]: without any significant effect on their reactivity

CC[O][Sn][O]CC [Tin(II) ethoxide, reference compound]
Stability (moisture, oxygen, colour change) [2]: turned yellow rapidly, even when the product was dried and kept under vacuum

tin(II) n-octoxide
Solubility in common organic solvents [1]: soluble in common organic solvents

From patent publication US9637507B2, “Process for the preparation of liquid tin(II) alkoxides” (CHIANG MAI UNIVERSITY, priority 2012, dated 2017)
